Key:
[1] = tested on: ECL1002; assay: Aztreonam potentiation (MPC@4); type: cell-based; conditions: minimum BLI concentration inhibiting growth with 4 μg/mL aztreonam
[2] = tested on: OXA-48 KP1086; assay: Biapenem potentiation (MPC@1); type: cell-based; conditions: minimum BLI concentration inhibiting growth with 1 μg/mL biapenem
Description: (§1) Biapenem was present in the test medium at 1 μg/mL. […] Table 3 summarizes the BLI potency of biapenem potentiation (MPC@1) for two strains overexpressing class A (KPC) and class D (OXA-48) carbapenemases. Biapenem MIC for each strain is also shown.

[3] = tested on: KP1004 KPC-2; assay: Biapenem potentiation (MPC@1); type: cell-based; conditions: minimum BLI concentration inhibiting growth with 1 μg/mL biapenem
Description: as §1

[4] = tested on: CTX-M-15 KP1009; type: cell-based
[5] = molecular target: SHV-12 (Klebsiella pneumoniae, UniProt P0AD64, E235K/G234S/L31Q); assay: Inhibition of nitrocefin cleavage by purified enzyme (Ki); type: biochemical; conditions: nitrocefin reporter substrate, 10 min preincubation; read-out: Ki (SHV-12, NCF)
Sequence of SHV-12 (P0AD64 22-286 L31Q/G234S/E235K): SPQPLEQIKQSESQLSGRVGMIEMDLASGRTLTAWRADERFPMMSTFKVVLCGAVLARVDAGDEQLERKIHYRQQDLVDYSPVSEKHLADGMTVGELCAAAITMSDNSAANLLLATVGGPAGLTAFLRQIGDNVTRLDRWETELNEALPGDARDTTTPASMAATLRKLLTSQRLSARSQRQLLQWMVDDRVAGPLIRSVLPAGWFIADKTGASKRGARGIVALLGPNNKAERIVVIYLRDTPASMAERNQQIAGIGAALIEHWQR
Description: Purified enzymes were mixed with various concentrations of inhibitors in reaction buffer and incubated for 10 min at room temperature. Nitrocefin was added and substrate cleavage profiles were recorded at 490 nm every 10 sec for 10 min.

[6] = tested on: SHV-5 ec308; type: cell-based; conditions: minimum BLI concentration inhibiting growth with tigemonam at 4 μg/mL
[7] = tested on: SHV-5 ec308; assay: Aztreonam potentiation (MPC@4); type: cell-based; conditions: minimum BLI concentration inhibiting growth with 4 μg/mL aztreonam
[8] = tested on: KPC-2 KP1004; assay: Aztreonam potentiation (MPC@4); type: cell-based; conditions: minimum BLI concentration inhibiting growth with 4 μg/mL aztreonam
[9] = tested on: ECL1002; type: cell-based; conditions: minimum BLI concentration inhibiting growth with tigemonam at 4 μg/mL
[10] = tested on: CTX-M-14 KP1005; type: cell-based

Compound | AZT MPC4 ECL1002 [1] | BPM MPC1 OXA-48 KP1086 [2] | BPM MPC1 KP1004 KPC-2 [3] | TIG MPC4 CTX-M-15 KP1009 [4] | Ki [5] [nM] | TIG MPC4 SHV-5 ec308 [6] | AZT MPC4 SHV-5 ec308 [7] | AZT MPC4 KPC-2 KP1004 [8] | TIG MPC4 ECL1002 [9] | TIG MPC4 CTX-M-14 KP1005 [10]
O=C(N[C@H]1Cc2cccc(C(=O)O)c2OB1O)c1cncnc1 [Compound 18, (R)-2-hydroxy-3-(pyrimidine-5-carboxamido)-3,4-dihydro-2H-benzo[e][1,2]oxaborinine-8-carboxylic acid] | Y (MIC of 1 μg/mL to 10 μg/mL) | Y (MIC of 1 μg/mL to 10 μg/mL) | Y (MIC of 1 μg/mL to 10 μg/mL) | Y (key: X: MIC of less than 1 μg/mL; Y: MIC of 1 μg/mL to 10 μg/mL; Z: MIC of greater than 10 μg/mL) | < 1 | Y (MIC of 1 μg/mL to 10 μg/mL) | Y (MIC of 1 μg/mL to 10 μg/mL) | Y (MIC of 1 μg/mL to 10 μg/mL) | Y (MIC of 1 μg/mL to 10 μg/mL) | Y (key: X: MIC of less than 1 μg/mL; Y: MIC of 1 μg/mL to 10 μg/mL; Z: MIC of greater than 10 μg/mL)
CSC(=O)N[C@H]1Cc2cccc(C(=O)O)c2OB1O [Compound 11, (R)-2-hydroxy-3-(methylthiocarbonylamino)-3,4-dihydro-2H-benzo[e][1,2]oxaborinine-8-carboxylic acid] | Y (MIC of 1 μg/mL to 10 μg/mL) | Y (MIC of 1 μg/mL to 10 μg/mL) | X (MIC of less than 1 μg/mL) | Y (key: X: MIC of less than 1 μg/mL; Y: MIC of 1 μg/mL to 10 μg/mL; Z: MIC of greater than 10 μg/mL) | < 1 | Y (MIC of 1 μg/mL to 10 μg/mL) | X (MIC of less than 1 μg/mL) | Y (MIC of 1 μg/mL to 10 μg/mL) | Y (MIC of 1 μg/mL to 10 μg/mL) | Y (key: X: MIC of less than 1 μg/mL; Y: MIC of 1 μg/mL to 10 μg/mL; Z: MIC of greater than 10 μg/mL)
NC(=O)C(=O)N[C@H]1Cc2cccc(C(=O)O)c2OB1O [Compound 17, (R)-3-(2-amino-2-oxoacetamido)-2-hydroxy-3,4-dihydro-2H-benzo[e][1,2]oxaborinine-8-carboxylic acid] | Y (MIC of 1 μg/mL to 10 μg/mL) | Y (MIC of 1 μg/mL to 10 μg/mL) | X (MIC of less than 1 μg/mL) | Y (key: X: MIC of less than 1 μg/mL; Y: MIC of 1 μg/mL to 10 μg/mL; Z: MIC of greater than 10 μg/mL) | 1 to 10 | Y (MIC of 1 μg/mL to 10 μg/mL) | X (MIC of less than 1 μg/mL) | Y (MIC of 1 μg/mL to 10 μg/mL) | Y (MIC of 1 μg/mL to 10 μg/mL) | Z (key: X: MIC of less than 1 μg/mL; Y: MIC of 1 μg/mL to 10 μg/mL; Z: MIC of greater than 10 μg/mL)
CN(C)C(=O)CC(=O)N[C@H]1Cc2cccc(C(=O)O)c2OB1O [Compound 10, (R)-3-(3-(dimethylamino)-3-oxopropanamido)-2-hydroxy-3,4-dihydro-2H-benzo[e][1,2]oxaborinine-8-carboxylic acid] | Y (MIC of 1 μg/mL to 10 μg/mL) | Y (MIC of 1 μg/mL to 10 μg/mL) | X (MIC of less than 1 μg/mL) | X (key: X: MIC of less than 1 μg/mL; Y: MIC of 1 μg/mL to 10 μg/mL; Z: MIC of greater than 10 μg/mL) | < 1 | Y (MIC of 1 μg/mL to 10 μg/mL) | Y (MIC of 1 μg/mL to 10 μg/mL) | X (MIC of less than 1 μg/mL) | X (MIC of less than 1 μg/mL) | Y (key: X: MIC of less than 1 μg/mL; Y: MIC of 1 μg/mL to 10 μg/mL; Z: MIC of greater than 10 μg/mL)
O=C(N[C@H]1Cc2cccc(C(=O)O)c2OB1O)c1cncc(F)c1 [Compound 14, (R)-3-(5-fluoronicotinamido)-2-hydroxy-3,4-dihydro-2H-benzo[e][1,2]oxaborinine-8-carboxylic acid] | Y (MIC of 1 μg/mL to 10 μg/mL) | Y (MIC of 1 μg/mL to 10 μg/mL) | X (MIC of less than 1 μg/mL) | Y (key: X: MIC of less than 1 μg/mL; Y: MIC of 1 μg/mL to 10 μg/mL; Z: MIC of greater than 10 μg/mL) | < 1 | Y (MIC of 1 μg/mL to 10 μg/mL) | Y (MIC of 1 μg/mL to 10 μg/mL) | Y (MIC of 1 μg/mL to 10 μg/mL) | Y (MIC of 1 μg/mL to 10 μg/mL) | Y (key: X: MIC of less than 1 μg/mL; Y: MIC of 1 μg/mL to 10 μg/mL; Z: MIC of greater than 10 μg/mL)
CN(C)C(=O)C(=O)N[C@H]1Cc2cccc(C(=O)O)c2OB1O [Compound 9, (R)-3-(2-(dimethylamino)-2-oxoacetamido)-2-hydroxy-3,4-dihydro-2H-benzo[e][1,2]oxaborinine-8-carboxylic acid] | Y (MIC of 1 μg/mL to 10 μg/mL) | Z (MIC of greater than 10 μg/mL) | X (MIC of less than 1 μg/mL) | Y (key: X: MIC of less than 1 μg/mL; Y: MIC of 1 μg/mL to 10 μg/mL; Z: MIC of greater than 10 μg/mL) |  | Y (MIC of 1 μg/mL to 10 μg/mL) | X (MIC of less than 1 μg/mL) | Y (MIC of 1 μg/mL to 10 μg/mL) | Y (MIC of 1 μg/mL to 10 μg/mL) | Y (key: X: MIC of less than 1 μg/mL; Y: MIC of 1 μg/mL to 10 μg/mL; Z: MIC of greater than 10 μg/mL)
Cn1nnnc1SCC(=O)N[C@H]1Cc2cccc(C(=O)O)c2OB1O [Compound 2, (R)-2-hydroxy-3-(2-(1-methyl-1H-tetrazol-5-ylthio)acetamido)-3,4-dihydro-2H-benzo[e][1,2]oxaborinine-8-carboxylic acid] | Y (MIC of 1 μg/mL to 10 μg/mL) | Y (MIC of 1 μg/mL to 10 μg/mL) | X (MIC of less than 1 μg/mL) | Y (key: X: MIC of less than 1 μg/mL; Y: MIC of 1 μg/mL to 10 μg/mL; Z: MIC of greater than 10 μg/mL) | < 1 | X (MIC of less than 1 μg/mL) | X (MIC of less than 1 μg/mL) | Y (MIC of 1 μg/mL to 10 μg/mL) | X (MIC of less than 1 μg/mL) | X (key: X: MIC of less than 1 μg/mL; Y: MIC of 1 μg/mL to 10 μg/mL; Z: MIC of greater than 10 μg/mL)
O=C(COCc1ccccc1)N[C@H]1Cc2cccc(C(=O)O)c2OB1O [CPD B, reference compound] | Z (MIC of greater than 10 μg/mL) | Z (MIC of greater than 10 μg/mL) | X (MIC of less than 1 μg/mL) | Z (key: X: MIC of less than 1 μg/mL; Y: MIC of 1 μg/mL to 10 μg/mL; Z: MIC of greater than 10 μg/mL) | < 1 | Y (MIC of 1 μg/mL to 10 μg/mL) | Y (MIC of 1 μg/mL to 10 μg/mL) | Z (MIC of greater than 10 μg/mL) | Y (MIC of 1 μg/mL to 10 μg/mL) | Z (key: X: MIC of less than 1 μg/mL; Y: MIC of 1 μg/mL to 10 μg/mL; Z: MIC of greater than 10 μg/mL)
O=C(N[C@H]1Cc2cccc(C(=O)O)c2OB1O)c1cncs1 [Compound 15, (R)-2-hydroxy-3-(thiazole-5-carboxamido)-3,4-dihydro-2H-benzo[e][1,2]oxaborinine-8-carboxylic acid] | Y (MIC of 1 μg/mL to 10 μg/mL) | Y (MIC of 1 μg/mL to 10 μg/mL) | X (MIC of less than 1 μg/mL) | Y (key: X: MIC of less than 1 μg/mL; Y: MIC of 1 μg/mL to 10 μg/mL; Z: MIC of greater than 10 μg/mL) | < 1 | Y (MIC of 1 μg/mL to 10 μg/mL) | X (MIC of less than 1 μg/mL) | Y (MIC of 1 μg/mL to 10 μg/mL) | Y (MIC of 1 μg/mL to 10 μg/mL) | Y (key: X: MIC of less than 1 μg/mL; Y: MIC of 1 μg/mL to 10 μg/mL; Z: MIC of greater than 10 μg/mL)
